Where two headings read alike, the source gives them in different places.
What was measured:
NEP = biological target: T1, NEP (Rattus norvegicus, UniProt P07861); test: PK-PD assay for NEP activity in conscious normotensive Sprague-Dawley rats (plasma cGMP after ANP bolus); assay type: in vivo, male Sprague-Dawley rats; conditions: 3 mg/kg oral
T1 construct: Pre-cannulated male Sprague-Dawley rats (3 per compound evaluated) between 8 and 10 weeks of age were obtained from Harlan Laboratories; from tissue; host or cells: whole animal: conscious male Sprague-Dawley rats (Harlan Laboratories)
T1 sequence (P07861 1-750): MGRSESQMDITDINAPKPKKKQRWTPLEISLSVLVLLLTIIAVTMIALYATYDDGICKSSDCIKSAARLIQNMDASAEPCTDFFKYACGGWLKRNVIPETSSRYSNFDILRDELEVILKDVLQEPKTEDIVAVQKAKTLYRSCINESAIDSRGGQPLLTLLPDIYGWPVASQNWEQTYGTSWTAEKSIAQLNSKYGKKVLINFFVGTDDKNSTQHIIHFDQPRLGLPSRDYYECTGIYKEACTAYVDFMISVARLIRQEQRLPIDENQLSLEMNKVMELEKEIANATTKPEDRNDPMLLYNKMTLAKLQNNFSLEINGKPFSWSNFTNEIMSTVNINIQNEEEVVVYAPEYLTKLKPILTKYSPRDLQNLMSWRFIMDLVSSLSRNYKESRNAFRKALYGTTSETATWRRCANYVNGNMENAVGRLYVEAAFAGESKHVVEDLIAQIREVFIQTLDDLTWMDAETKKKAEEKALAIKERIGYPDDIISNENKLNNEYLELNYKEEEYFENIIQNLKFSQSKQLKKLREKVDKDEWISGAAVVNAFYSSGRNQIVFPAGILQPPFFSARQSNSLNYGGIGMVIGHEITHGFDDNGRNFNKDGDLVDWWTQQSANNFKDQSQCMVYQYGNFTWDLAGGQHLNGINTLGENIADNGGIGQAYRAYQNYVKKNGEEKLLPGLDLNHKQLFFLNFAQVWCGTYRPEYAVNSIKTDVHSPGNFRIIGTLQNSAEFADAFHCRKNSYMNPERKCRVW
Procedure: Appropriate masses of each test compound were added into a volume of vehicle (e.g. 5% sodium bicarbonate, 5% dextrose in H2O) such that the final concentration of each compound was appropriate to be dosed at 2 mL/kg. Note that a homogenous suspension was deemed to be acceptable for oral dosing.
Pre-cannulated male Sprague-Dawley rats (3 per compound evaluated) between 8 and 10 weeks of age were obtained from Harlan Laboratories (Indianapolis, Ind.). Rats received a single oral gavage of the dosing solution. The final dose was typically in the range of 3-30 mg/kg. Serial blood samples were harvested via the cannula implanted in the jugular vein at 3 minutes, 15 minutes, 35 minutes, 45 minutes, 1 hour, 2 hours, 4 hours, 6 hours, and 24 hours post-dose. Samples were collected into microtainer tubes containing EDTA as the anticoagulant and were processed to plasma by refrigerated centrifugation. Fifteen minutes prior to the 45 minute, 2 hour, 4 hour, 6 hour, and 24 hour samples, an IV bolus (30 μg/kg) of Atrial Natriuretic Peptide (ANP) was administered. […] Since binding of ANP to its receptor leads to activation of guanylyl cyclase and subsequent production of cyclic guanosine monophosphate (cGMP), the observation of elevated levels of cGMP (>20 nM) in plasma 15 minutes after the IV administration of the ANP bolus was interpreted as evidence of ongoing neprilysin inhibition. Elevated levels plasma cGMP levels 24 hours after dosing is an indicator of the duration pharmacologic effect, analogous to plasma clearance values as indicators of pharmacokinetic persistence.
Plasma samples were extracted with 3 volumes of MeCN containing a suitable internal standard. Extracts were reconstituted into 3 volumes of water containing 1% formic acid. Plasma cGMP and test compound concentrations were quantified in plasma samples by HPLC-coupled mass spectrometric detection.

[1] = IV/PO pharmacokinetic study of Compound 1 in monkeys; assay type: in vivo; conditions: male, cynomolgus monkey, plasma, 1 mg/kg; for AUC(0-t): read-out: AUClast Mean
Procedure: A monkey PK study was performed with an appropriate mass of compound 1 in volume of vehicle (e.g., 5% sodium bicarbonate, 5% dextrose in H2O, pH 7.4, for oral and PEG200:EtOH:Water (40:10:50), pH 7.0, filtered through a […] PDVF syringe for IV) such that the final concentration was dosed at 0.5 mL/kg (IV) or 2.0 mL/kg (PO).
Male cynomologus monkeys (3 per route) housed at Xenometrics (Stilwell, Kans.) received an IV or PO dose of compound 1 at 1 mg/kg. Animals administered IV doses had access to food ad libitum and those administered PO doses were fasted overnight and received food approximately 4 hours after dose administration. Blood samples were collected from each animal at each time point (pre-dose, 0.083 hour, 0.25 hour, 0.5 hour, 1 hour, 2 hours, 4 hours, 6 hours, 8 hours, 12 hours, and 24 hours) via the cephalic, femoral, or sphenous vein through 48 hours. All samples were collected into K2EDTA tubes and placed on ice. Samples were processed to plasma by centrifugation (3200 rpm, 10 minutes, 5° C.), and acidified with a final concentration of 2% acetic acid. Aliquots of plasma were transferred to a 96-well plate tubes and stored frozen (−70° C.) prior to bioanalysis. Plasma concentrations of compound 1 were determined by LC/MS/MS. Plasma study samples were vortexed and placed in a 96-well plate. The samples were extracted with 200 μL of 0.2% formic acid in acetonitrile with an internal standard. The extract was centrifuged for 10 minutes at 3700 RPM and supernatant was mixed with 0.2% formic acid in water. Samples (15 μL) were injected on a Thermo (C18 50×2.1 mm) column with a flow rate of 0.3 mL/min. […] Pharmacokinetic parameters of compound 1 were determined by non-compartmental analysis (Model 201 and Model 200 for IV and PO administration, respectively) using Phoenix WinNonlin Version 6.3 (Certara, Sunnyvale, Calif.) and using individual plasma concentration time profiles from 3 animals.
Plasma clearance was determined from the intravenous arm of the study, and represents the rate at which plasma is cleared of drug. […]

cGMP Concentration 24 hours After Dosing Mean (NEP; rat plasma, 15 min after IV ANP bolus (30 μg/kg), average of three determinations): 112 nM | potentiation of cGMP 24 hr after dosing compared to Compounds C2, C3 and C4 (NEP; rat): more than 2 fold | AUC(0-t) ([1]; IV): 2780 ng·h/mL | AUC(0-t) ([1]; PO): 1660 ng·h/mL | bioavailability ([1]; oral, PO vs IV): ~60%
Compound: Cc1cnc(C(=O)N[C@H](Cc2ccc(-c3cc(Cl)ccc3F)cc2)C[C@@H](O)C(=O)O)o1 [Compound 1, (2R,4R)-5-(5′-Chloro-2′-fluorobiphenyl-4-yl)-2-hydroxy-4-[(5-methyloxazole-2-carbonyl)amino]pentanoic Acid]
